# Measured values published in publication PMC4859512, “Polyamino-Isoprenic Derivatives Block Intrinsic Resistance of P. aeruginosa to Doxycycline and Chloramphenicol In Vitro” (PLoS ONE, 2016).
# Where “and” joins values, the source holds several entries; their conditions need not be identical. Equal entries are not always repeated.
# Key:
# CHO-K1 cells = test: cells; format: cell-based, Chinese Hamster; conditions: for IC50: Cricetulus griseus, CHO-K1, WST1, 24 h, mean +/- SD, 2 independent experiments
# Protocol: (§1) CHO-K1 cells (ATCC-LGC Standards Sarl (Molsheim, France) and human fibroblasts (Clinisciences, Paris, France) were maintained in McCoy’s 5A and DMEM media, respectively, supplemented with 10% bovine calf serum, 2 mM glutamine, and 100 U/mL/10 μg/mL penicillin/streptomycin. They were incubated at 37°C in a humidified atmosphere containing 5% CO2. The cell lines were seeded in 96-well plates and incubated overnight. The cytotoxic effects of compounds were assessed by the colorimetric WST-1 cell proliferation assay as previously described. Briefly, a range of compound concentrations from 30 μM to 1200 μM was added to triplicate cultures, and cells were incubated at 37°C for 24 h. At the end of the incubation period, cultures were washed three times with phosphate buffer saline (PBS) and incubated in fresh culture medium containing 10% WST-1 for an additional 30 min. Cell viability was evaluated by measuring the WST-1 absorbance at 450 nm in a microplate spectrophotometer MRX1 II (Dynex technologies, Chantilly, VA, USA). The Inhibitory Concentration 50% (IC50) was chosen to evaluate the cytotoxicity of compounds. IC50 was defined as the concentration of a compound that induced a 50% decrease in viable cells. Doxorubicin was used as a positive control.
# P. aeruginosa PA01 (wt) = test: Antibiotic susceptibility testing (broth micro-dilution MIC), strain PA01; format: cell-based, Pseudomonas aeruginosa; conditions: Pseudomonas aeruginosa, read-out: Minimal Inhibitory Concentration
# Protocol: (§2) Experiments were performed on the BAC-SCREEN platform of the UMR-MD1, with a Freedom EVO 150 liquid handling system (Tecan, Lyon, France).
# (§3) The same experiment was performed using chloramphenicol (4 mg/L) in combination with 3 (10 μM final concentration). […] These experiments were performed to study the effect of our compounds on the natural resistance of P. aeruginosa. […] Experiments were performed with the ß-lactams ceftazidime and ticarcillin and ciprofloxacin and amikacin.
# [1] = test system: P. aeruginosa PT629 (Mex AB overproducer); test: Antibiotic susceptibility testing (broth micro-dilution MIC), strain PT629; format: cell-based, Pseudomonas aeruginosa; conditions: Pseudomonas aeruginosa, read-out: Minimal Inhibitory Concentration
# Protocol: as §2
# (§4) We concluded that compound 3 was the best compound and suitable for a more detailed study. The same experiment was performed using chloramphenicol (4 mg/L) in combination with 3 (10 μM final concentration). Amongst the 20 clinical isolates, the growth of 15 (75%) was impaired, while 5 (25%) were resistant (data not shown). These experiments were performed to study the effect of our compounds on the natural resistance of P. aeruginosa. In addition, we were wondering if compound 3 could also increase susceptibility to other antibiotic families including ß-Lactams, fluoroquinolones and aminoglycosides, that are representative of the main classes of anti-pseudomonal agents. Experiments were performed with the ß-lactams ceftazidime and ticarcillin and ciprofloxacin and amikacin. […] . […] To better characterize compound 3, we first searched for the minimum concentration of compound that allowed killing of bacteria by doxycycline, and PAßN was used as the reference molecule.
# [2] = test system: P. aeruginosa CMZ091 (Mex XY overproducer); test: Antibiotic susceptibility testing (broth micro-dilution MIC), strain CMZ091; format: cell-based, Pseudomonas aeruginosa; conditions: Pseudomonas aeruginosa, read-out: Minimal Inhibitory Concentration
# Protocol: as §2, §4
# [3] = test system: P. aeruginosa PA0-7H (Mex EF overproducer); test: Antibiotic susceptibility testing (broth micro-dilution MIC), strain PA0-7H; format: cell-based, Pseudomonas aeruginosa; conditions: Pseudomonas aeruginosa, read-out: Minimal Inhibitory Concentration
# Protocol: as §2, §4
# [4] = test system: P. aeruginosa FB1 (Mex B deleted); test: Antibiotic susceptibility testing (broth micro-dilution MIC), strain FB1; format: cell-based; conditions: Pseudomonas aeruginosa, read-out: Minimal Inhibitory Concentration
# Protocol: as §2
# [5] = test system: P. aeruginosa PA01 ERY^R (Mex CD overproducer); test: microbe, parasite or virus in culture; format: cell-based, Pseudomonas aeruginosa; conditions: Pseudomonas aeruginosa, read-out: Minimal Inhibitory Concentration
# Protocol: as §2, §3
# [6] = test system: twenty clinical isolates of P. aeruginosa; test: Combined antibiotic / polyamino-isoprenic derivative on MH agar plates, clinical isolates; format: cell-based, Pseudomonas aeruginosa; conditions: doxycycline 2 mg/L + compound 10 μM; 20 clinical isolates
# Protocol: MH agar plates were prepared, containing 2 mg/L doxycycline and 2 mg/L doxycycline in combination with compounds at a concentration of 10 μM. Bacteria, 5 μL of a suspension of each clinical isolate adjusted to 5 x 10^5 colony-forming units per ml were spotted on each plate and growth was monitored after a 18 h period of incubation at 37°C.
# PA01 is a well-studied reference strain of P. aeruginosa, however to extend our study we considered strains recently isolated from hospitalized patients. Thus, we decided to test this combination of doxycycline (2mg/L) with polyamino-isoprenic compounds (10 μM) on twenty clinical isolates recently isolated from the HIA-Laveran (see M&M section and S1 Table).
# Enterobacteriaceae = test: Same type of combination assay against Enterobacteriaceae (data not shown); format: cell-based
# [7] = test system: efflux of 1,2'-dinaphthylamine in strain PA01; test: Real-time efflux assay (1,2'-dinaphthylamine, glucose-triggered); format: cell-based, Pseudomonas aeruginosa
# Protocol: The experiments were performed as previously described with slight modifications. For each strain, 20 mL of MHII was inoculated with a single colony from a fresh plate and grown at 37°C to the stationary phase. […] They were then loaded over night with the dye 1,2’-dinaphthylamine (TCI-Europe SA, Zwijndrecht, Belgium) at a final concentration of 32 μM, in the presence of 5 μM CCCP. […] In a 96-well Greiner black microplate (Greiner, Courtaboeuf, France), a gradient of inhibitor (when used) was prepared in PPB, and bacteria were added (100 μL per well). The fluorescence of the cell suspension, was monitored each 22 sec during 1200 sec on an Infinite M200 microplate reader (Tecan; excitation wavelength 370 nm and emission wavelength 420 nm). In order to trigger the transport, glucose (50 mM final concentration) is added at 200 sec. The maximum efficacy of the efflux is the difference between the value obtained without and with glucose addition after 1200 sec. For each compound, the efficiency of efflux inhibition is calculated as the difference between the maximum efficacy of transport and the residual transport obtained at various concentrations of the compound.
# [8] = test system: outer membrane of P. aeruginosa PA01; test: Outer membrane permeation assay (nitrocefin hydrolysis); conditions: compound at 125μM, relative to 250 μM polymyxin-B
# Protocol: An overnight culture of PA01 was diluted 100-fold into 10 ml MHII broth containing 0.01 μg/ml of imipenem to induce a higher level of β-lactamases. […] Absorbance at 490 nm was monitored by spectrophotometry using an Infinite M200 microplate reader (Tecan) over 60 min. Experiments were performed in triplicate.
# [9] = test system: P. aeruginosa PA01 reference strain; test: High-content screening in the presence of doxycycline; conditions: compound 10 μM, sub-inhibitory doxycycline
# Protocol: The screening was carried out in 96-well microtiter plates using MHBII, in a final volume of 200 μL. […] The bacterial inoculum of 5×10^5 CFU/mL was prepared from an overnight culture. In addition to the polyamino-isoprenic compounds, each plate contained PAßN, CCCP, CTAB, polymyxin-B and benzalkonium chloride as control molecules. Plates were incubated at 37°C under aerobic conditions for 18 hours. Plates were read at 600 nm on an Infinite M200 Pro plate reader (Tecan).
# A series of 60 compounds, which were described [18], were tested at a concentration of 10 μM in combination with a sub-inhibitory concentration of doxycycline against the reference strain of P. aeruginosa PA01. In parallel, we evaluated the intrinsic antimicrobial activity of these compounds alone to allow the selection of only doxycycline adjuvants.
# human fibroblasts = test: WST-1 cytotoxicity test, fibroblasts; format: cell-based
# Protocol: as §1
compound,measurement,setting,value
CC(C)=CCCC(C)=CCNCCCN(CCCN)CCCN [Compound 2],IC50,CHO-K1 cells,236 ± 28.9 µM
same,MIC,P. aeruginosa PA01 (wt),> 81 µg/mL and > 250 µM
same,MIC,[1],> 81 µg/mL and > 250 µM
same,MIC,[2],> 81 µg/mL and > 250 µM
same,MIC,[3],> 81 µg/mL and > 250 µM
same,MIC,[4],> 81 µg/mL and > 250 µM
same,MIC,[5],> 81 µg/mL and > 250 µM
same,isolates with doxycycline susceptibility restored,[6],6%
same,rank of potency against Enterobacteriaceae,Enterobacteriaceae,the most potent
"polymyxin-B nonapeptide [PMBN, reference compound]",efflux inhibition,[7]; compound at 31.25μM,quite inefficient
same,efflux inhibition,[7]; compound at 125μM,30%
same,outer membrane permeation activity,[8],10%
CC(C)=CCCC(C)=CCNCCCNCCCCNCCCN [Compound 1],cytotoxicity value compared with the positive control doxorubicin,"CHO-K1 cells; Chinese hamster, 24 h",20 times
same,IC50,CHO-K1 cells,808 ± 68.1 µM
same,MIC,P. aeruginosa PA01 (wt),> 85 µg/mL and > 250 µM
same,MIC,[1],> 85 µg/mL and > 250 µM
same,MIC,[2],85 µg/mL and 250 µM
same,synergy with doxycycline in screening,[9],did not show any significant synergy
same,MIC,[3],85 µg/mL and 250 µM
same,MIC,[4],85 µg/mL and 250 µM
same,IC50,"human fibroblasts; Homo sapiens, Fibroblast, WST1, 24 h, mean +/- SD, 2 independent experiments",138 ± 18.6 µM
same,cytotoxicity value compared with the positive control doxorubicin,human fibroblasts; human fibroblasts,10 times
same,MIC,[5],> 85 µg/mL and > 250 µM
same,isolates with doxycycline susceptibility restored,[6],27%
